The results in this text go back to patent US8378104B2 (OSI Pharmaceuticals, LLC, priority 2010, dated 2013).

The term IC50 denotes the concentration that gives 50% inhibition.

Where a name gives a salt, the structure may show the parent alone.

The test addresses T1, TAK1-TAB1 fusion protein (Homo sapiens, UniProt O43318).
T1 construct: purchased Carna
T1 sequence (O43318 with tags, fused parts or gaps limits assumed): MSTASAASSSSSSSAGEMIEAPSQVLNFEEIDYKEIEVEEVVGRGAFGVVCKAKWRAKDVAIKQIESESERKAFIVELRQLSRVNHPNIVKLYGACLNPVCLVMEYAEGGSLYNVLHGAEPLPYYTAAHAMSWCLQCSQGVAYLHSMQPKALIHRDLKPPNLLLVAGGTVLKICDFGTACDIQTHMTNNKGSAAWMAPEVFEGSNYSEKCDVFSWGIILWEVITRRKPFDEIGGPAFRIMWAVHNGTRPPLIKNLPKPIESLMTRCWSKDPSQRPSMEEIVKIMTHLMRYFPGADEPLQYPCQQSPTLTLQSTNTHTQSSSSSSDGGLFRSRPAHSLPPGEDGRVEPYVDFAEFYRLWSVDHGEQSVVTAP
Nature of the test: TAK1 biochemical assay (AlphaScreen, GST-MAP2K7 substrate). The following applies: TAK1-TAB1 fusion protein, GST-MAP2K7 substrate; read-out: mean TAK1 IC50 (Col. A). On the technique in general: Alpha assays give light when donor and acceptor beads are brought close together.
In the case of `CC(=O)c1ccccc1-c1cc2c(-c3cnn(C4CCN(C(C)=O)CC4)c3)cnc(N)c2o1` [Example 193, 1-(4-{4-[2-(2-acetylphenyl)-7-aminofuro[2,3-c]pyridin-4-yl]-1H-pyrazol-1-yl}piperidin-1-yl)ethanone], the half-inhibitory concentration (IC50) lay in the range of 1000 to 10000 nM.

On to `CCC(C)Oc1cccc(-c2cc3c(-c4cnn(C5CCN(C(C)=O)CC5)c4)cnc(N)c3o2)c1` (stereo not shown) [Example 210], for which the IC50 was over 10000 nM. On to `Cn1cnc(-c2cnc(N)c3oc(-c4csc5cnccc45)cc23)c1` [Example 395, 4-(1-methyl-1H-imidazol-4-yl)-2-thieno[2,3-c]pyridin-3-yl-furo[2,3-c]pyridin-7-ylamine], for which the IC50 is over 10000 nM. For the compound `CC(=O)N1CCC(n2cc(-c3cnc(N)c4oc(-c5cccc(OCC(F)(F)F)c5)cc34)cn2)CC1` [Example 187, 1-[4-(4-{7-amino-2-[3-(2,2,2-trifluoroethoxy)phenyl]furo[2,3-c]pyridin-4-yl}-1H-pyrazol-1-yl)piperidin-1-yl]ethanone], the IC50 lay in the range of 1000 to 10000 nM.

Turning to `Nc1ncc(-c2cnn(C3CCNCC3)c2)c2cc(-c3cncc4ccccc34)oc12` [Example 34, 2-(isoquinolin-4-yl)-4-[1-(piperidin-4-yl)-1H-pyrazol-4-yl]furo[2,3-c]pyridine-7-amine], the IC50 is 1000 to 10000 nM. For `Nc1ncc(-c2cnn(C3CCNCC3)c2)c2c(Cl)c(-c3ccccc3)oc12` [Example 12, 3-chloro-2-phenyl-4-[1-(piperidin-4-yl)-1H-pyrazol-4-yl]furo[2,3-c]pyridin-7-amine hydrochloride] the value was 100 to 1000 nM. The figure for `Cc1c(-c2ccc3[nH]ncc3c2)oc2c(N)ncc(-c3cnn(C4CCNCC4)c3)c12` [Example 11, 2-(1H-indazol-5-yl)-3-methyl-4-[1-(piperidin-4-yl)-1H-pyrazol-4-yl]furo[2,3-c]pyridin-7-amine hydrochloride] is 1000 to 10000 nM; for `Nc1ncc(-c2cnn(C3CCNCC3)c2)c2cc(-c3ccc4[nH]c(=O)[nH]c4c3)oc12` [Example 25, 5-{7-amino-4-[1-(piperidin-4-yl)-1H-pyrazol-4-yl]furo[2,3-c]pyridine-2-yl}-1,3-dihydro-2H-benzimidazol-2-one] it is 1000 to 10000 nM. `Nc1ncc(-c2cnn(C3CCNCC3)c2)c2cc(-c3cccc(Cl)c3Cl)oc12` [Example 4, 2-(2,3-dichlorophenyl)-4-[1-(piperidin-4-yl)-1H-pyrazol-4-yl]furo[2,3-c]pyridin-7-amine]: the IC50 fell in the range of 1000 to 10000 nM. In the case of `CN(C)c1nc2cccc(-c3cc4c(-c5cnn([C@H]6CC[C@H](O)CC6)c5)cnc(N)c4o3)c2s1` [Example 371, trans-4-(4-{7-amino-2-[2-(dimethylamino)-1,3-benzothiazol-7-yl]furo[2,3-c]pyridin-4-yl}-1H-pyrazol-1-yl)cyclohexanol Trifluoroacetate (Salt)], the IC50 is 1000 to 10000 nM. `CC(=O)Nc1ccc(-c2cc3c(-c4cnn(C5CCN(C(C)=O)CC5)c4)cnc(N)c3o2)cn1` [Example 126, N-(5-{4-[1-(1-acetylpiperidin-4-yl)-1H-pyrazol-4-yl]-7-aminofuro[2,3-c]pyridin-2-yl}pyridin-2-yl)acetamide]: the IC50 was 1000 to 10000 nM. With `CC(=O)N1CCC(n2cc(-c3cnc(N)c4oc(-c5csc6cn(C)c(=O)cc56)cc34)cn2)CC1` [Example 244, 3-{4-[1-(1-acetylpiperidin-4-yl)-1H-pyrazol-4-yl]-7-aminofuro[2,3-c]pyridin-2-yl}-6-methylthieno[2,3-c]pyridin-5(6H)-one trifluoroacetate], the IC50 lay in the range of 1000 to 10000 nM. As for `Nc1ncc(-c2cnn(C3CCNCC3)c2)c2cc(-c3cccc4c3NC(=O)C4)oc12` [Example 44, 7-{7-amino-4-[1-(piperidin-4-yl)-1H-pyrazol-4-yl]furo[2,3-c]pyridine-2-yl}-1,3-dihydro-2H-indol-2-one], the IC50 fell in the range of 1000 to 10000 nM. For `Nc1ncc(-c2cnn(C3CCNCC3)c2)c2cc(-c3ccoc3)oc12` [Example 21, 2-(furan-3-yl)-4-[1-(piperidin-4-yl)-1H-pyrazol-4-yl]furo[2,3-c]pyridine-7-amine], the IC50 fell in the range of 1000 to 10000 nM. `COC(=O)c1csc(-c2cnc(N)c3oc(-c4csc5cnccc45)cc23)c1` [Example 380, 5-(7-amino-2-thieno[2,3-c]pyridin-3-yl-furo[2,3-c]pyridin-4-yl)-thiophene-3-carboxylic acid methyl ester]: the IC50 was 1000 to 10000 nM.

As to `CCOC(=O)[C@H]1CC[C@H](n2cc(-c3cnc(N)c4oc(-c5csc6cnccc56)cc34)c(C)n2)CC1` [Example 298, 4-[4-(7-amino-2-thieno[2,3-c]pyridin-3-yl-furo[2,3-c]pyridin-4-yl)-3-methyl-pyrazol-1-yl]-cyclohexane carboxylic acid ethyl ester], the IC50 was over 10000 nM. Turning to `CC(=O)N1CCC(n2cc(-c3cnc(N)c4oc(-c5cccc(OCc6ccncc6)c5)cc34)cn2)CC1` [Example 203, 1-[4-(4-{7-amino-2-[3-(pyridin-4-ylmethoxy)phenyl]furo[2,3-c]pyridin-4-yl}-1H-pyrazol-1-yl)piperidin-1-yl]ethanone], the IC50 lay in the range of 100 to 1000 nM.

With `CC(=O)N1CCC(n2cc(-c3cnc(N)c4oc(-c5ccnc6cc(Cl)ccc56)cc34)cn2)CC1` [Example 409, 1-(4-{4-[7-amino-2-(7-chloroquinolin-4-yl)furo[2,3-c]pyridin-4-yl]-1H-pyrazol-1-yl}piperidin-1-yl)ethanone], the IC50 lay in the range of 1000 to 10000 nM. In the case of `Nc1ncc(-c2cnn([C@H]3CC[C@H](O)CC3)c2)c2cc(-c3c(-c4cccc(F)c4)ccc4cnsc34)oc12` [Example 356, trans-4-(4-{7-amino-2-[6-(3-fluorophenyl)-1,2-benzothiazol-7-yl]furo[2,3-c]pyridin-4-yl}-1H-pyrazol-1-yl)cyclohexanol], the IC50 was over 10000 nM. Turning to `CC1(C)OCC(Cn2cc(-c3cnc(N)c4oc(-c5cccc6cnccc56)cc34)cn2)O1` (stereo not shown) [Example 61, 4-{1-[(2,2-dimethyl-1,3-dioxolan-4-yl)methyl]-1H-pyrazol-4-yl}-2-(isoquinolin-5-yl)furo[2,3-c]pyridin-7-amine], the IC50 lay within 1000 to 10000 nM. In the case of `CC(=O)N1CCC(n2cc(-c3cnc(N(C)C)c4oc(-c5csc6cnccc56)cc34)cn2)CC1` [Example 276, 1-(4-{4-[7-(dimethylamino)-2-(thieno[2,3-c]pyridin-3-yl)furo[2,3-c]pyridin-4-yl]-1H-pyrazol-1-yl}piperidin-1-yl)ethanone trifluoroacetic acid salt], the IC50 lay within 1000 to 10000 nM.

Regarding `CC(=O)N1CCC(n2cc(-c3cnc(N)c4oc(-c5cccc(OCc6ccc(Cl)cc6)c5)cc34)cn2)CC1` [Example 206, 1-{4-[4-(7-amino-2-{3-[(4-chlorobenzyl)oxy]phenyl}furo[2,3-c]pyridin-4-yl)-1H-pyrazol-1-yl]piperidin-1-yl}ethanone], the IC50 is over 10000 nM. As for `Cn1cnc2cc(-c3oc4c(N)ncc(-c5cnn(C6CCNCC6)c5)c4c3Cl)cnc21` [Example 15, 3-chloro-2-(3-methyl-3H-imidazo[4,5-b]pyridine-6-yl)-4-[1-(piperidin-4-yl)-1H-pyrazol-4-yl]furo[2,3-c]pyridin-7-amine hydrochloride], the IC50 fell in the range of 1000 to 10000 nM. For `Nc1ncc(-c2cnn(C3CCNCC3)c2)c2cc(-c3cccc4ccsc34)oc12` [Example 17, 4-{4-[7-amino-2-(1-benzothiophen-7-yl)furo[2,3-c]pyridine-4-yl]-1H-pyrazol-1-yl}piperidine hydrochloride] the value was 1000 to 10000 nM; for `CC(=O)N1CCC(n2cc(-c3cnc(N)c4oc(-c5cccc(OCc6cccnc6)c5)cc34)cn2)CC1` [Example 202, 1-[4-(4-{7-amino-2-[3-(pyridin-3-ylmethoxy)phenyl]furo[2,3-c]pyridin-4-yl}-1H-pyrazol-1-yl)piperidin-1-yl]ethanone], 1000 to 10000 nM; for `CC(=O)Nc1cccc(-c2cc3c(-c4cnn(C5CCN(C(C)=O)CC5)c4)cnc(N)c3o2)c1` [Example 137, N-(3-{4-[1-(1-acetylpiperidin-4-yl) 1H-pyrazol-4-yl]-7-aminofuro[2,3-c]pyridin-2-yl}phenyl)acetamide], 1000 to 10000 nM. On to `CC(=O)N1CCC(n2cc(-c3cnc(N)c4oc(-c5ccc([N+](=O)[O-])nc5)cc34)cn2)CC1` [Example 119, 1-(4-{4-[7-amino-2-(6-nitropyridin-3-yl)furo[2,3-c]pyridin-4-yl]-1H-pyrazol-1-yl}piperidin-1-yl)ethanone], for which the IC50 was in the range of 1000 to 10000 nM.

On to `Nc1ncc(-c2cnn(C3CCNCC3)c2)c2cc(-c3cccc4c3sc3ccccc34)oc12` [Example 37, 2-(dibenzo[b,d]thiophen-4-yl)-4-[1-(piperidin-4-yl)-1H-pyrazol-4-yl]furo[2,3-c]pyridine-7-amine], for which the IC50 is 100 to 1000 nM. For the compound `COc1cccc(-c2cc3c(-c4cnn(C5CCN(C(C)=O)CC5)c4)cnc(N)c3o2)c1` [Example 161, 1-(4-{4-[7-amino-2-(3-methoxyphenyl)furo[2,3-c]pyridin-4-yl]-1H-pyrazol-1-yl}piperidin-1-yl)ethanone], the IC50 is 1000 to 10000 nM. On to `Nc1ncc(-c2cnn(C3CNC3)c2)c2cc(-c3cccc4cnccc34)oc12` [Example 64, 4-[1-(azetidin-3-yl)-1H-pyrazol-4-yl]-2-(isoquinolin-5-yl)furo[2,3-c]pyridin-7-amine], for which the IC50 fell in the range of 100 to 1000 nM. `CC(=O)N1CCC(n2cc(-c3cnc(N)c4oc(-c5ccc(C(=O)N(C)C)cc5)cc34)cn2)CC1` [Example 125, 4-{4-[1-(1-acetylpiperidin-4-yl)-1H-pyrazol-4-yl]-7-aminofuro[2,3-c]pyridin-2-yl}-N,N-dimethylbenzamide]: the half-inhibitory concentration (IC50) was over 10000 nM.
